Test results: the METLIN SMRT retention time set (Domingo-Almenara et al. 2019)

Experiment: gradient 5% acetonitrile 3 min, to 50% in 2 min, to 85% in 15 min, held 3 min, 100 µL/min
Settings: column: Zorbax Extend-C18 2.1 x 50 mm; eluents: water / acetonitrile, 0.1% formic acid
Method in brief: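 Retention time was recorded from adduct peaks, which were picked computationally and each inspected manually. Pure standards ran in mixtures of ~100 molecules on HPLC coupled to a quadrupole time-of-flight mass spectrometer, in positive and negative ionization mode, through a Zorbax Extend-C18 column (2.1 × 50 mm, 1.8 μm) at 100 μL/min. Eluents were water and acetonitrile, each with 0.1% formic acid.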

| SMILES | RP-LC retention time |
| --- | --- |
| O=C(O)c1ccc(-c2c[nH]c3ncc(-c4ccccc4)cc23)cc1C1CCCC1 | 700 s |
| COc1ccc(-c2nc(C)c(CCNS(=O)(=O)c3ccc4c(c3)OCCO4)s2)cc1 | 831 s |
| O=C(c1cn(-c2cc(N3CCCCC3)ncn2)cn1)N1CCC2(CC1)OCCO2 | 750 s |
| COc1ccc(-c2nc(CCS(=O)(=O)c3ccc(Cl)cc3)no2)cc1OC | 946 s |
| Cc1oc(-c2[nH]ncc2C(=O)N2CCCC2)cc1S(=O)(=O)Nc1ccc(F)cc1F | 698 s |
| Cc1noc(C)c1S(=O)(=O)N1CCC2(CC1)CN(c1ccccc1)C2=O | 924 s |
| CN(CC1CCOC1)S(=O)(=O)Cc1cccc(Cl)c1 (stereo unspecified) | 804 s |
| O=C(NCc1ccco1)C1CCN(c2ncccc2-c2nc(-c3cccc(Cl)c3)no2)CC1 | 1060 s |
| Cc1nnc(NC(=O)CSc2nnc(-c3ccc(=O)n(C)c3)n2C)s1 | 532 s |
| CCN(C(=O)c1ccccc1Cl)c1nc(-c2ccccc2)cs1 | 1310 s |
| COc1cccc(CNC(=O)Cn2ncc3c(c2=O)N(C2CC2)C(=O)CS3)c1 | 671 s |
| CCOC(=O)c1c(C)[nH]c(CCC(=O)NCCN2CCOCC2)c1C | 597 s |
| CC(=O)Nc1ccc(C(=O)N2CCCCCC2)o1 | 665 s |
| C=CCc1cc(OC)ccc1OCC(O)CN1CCN(C(=O)OCC)CC1 (stereo unspecified) | 592 s |
| CCCN(C(=O)c1c(C)oc2nc(C)nc(N3CCOCC3)c12)c1ccc(OCC)cc1 | 902 s |
| CC(C)N1CC(CNC(=O)c2ccc(Cl)s2)C2(CCCCC2)C1 (stereo unspecified) | 694 s |
| CC(C)c1ccc(S(=O)(=O)NCC(c2cccnc2)c2c[nH]c3ccccc23)cc1 (stereo unspecified) | 772 s |
| COc1ccc(-c2nn3c(-c4ccccc4F)nnc3s2)cc1 | 935 s |
| CCCN(C)C(=O)c1cc(=O)[nH]c2ccccc12 | 614 s |
| Cc1ncoc1C(=O)N1CCOc2ccc(N(C)C)cc2C1 | 572 s |
| CCCN1CCn2cc(S(=O)(=O)Nc3ccc(OC)cc3)cc2C1=O | 715 s |
| COc1cc2c(c3oc4cccc(O)c4c(=O)c13)C1C=CO[C@@H]1O2 (stereo partly specified) | 989 s |

| SMILES | RP-LC retention time |
| --- | --- |
| O=S(=O)(NCc1ccc(Br)cc1)c1ccc2c(c1)-c1oncc1CO2 | 958 s |
| CCC1CCCCN1C(=O)CN1CN(c2ccc(C)cc2)c2ncccc2S1(=O)=O (stereo unspecified) | 1030 s |
| Cc1ccc(CC#N)c(-c2c(CC#N)ccc(C)c2C)c1C | 1170 s |
| CCOc1ccccc1N1CCN(C(=O)C2CCN(c3nccc4c(C)nn(CC)c34)CC2)CC1 | 719 s |
| CN(C)CCNC(=O)c1cc(S(=O)(=O)N2CCOCC2)ccc1Cl | 563 s |
| CCCc1cc(NC)n2ncc(-c3ccccc3)c2n1 | 683 s |
| O=C1CCCCC(C(=O)Nc2ccc3c(c2)OCCO3)N1 (stereo unspecified) | 669 s |
| Cc1cccc(OCC(=O)Nc2ccc3c(c2)Sc2ncccc2C(=O)N3C(C)C)c1 | 972 s |
| CCN(CC)C(=O)c1ccc2c(c1)N(CC(=O)NC1CCCCCCC1)C(=O)CS2 | 879 s |
| Cc1ccccc1CN1C[C@@H]2C(=O)N(CCCN3CCCC3=O)C(=O)[C@@H]2C1 | 606 s |
| COc1ccc(-c2noc(-c3nn(-c4ccc(C)cc4)ccc3=O)n2)cc1 | 919 s |
| Cc1nnc(N2CCCC(C(=O)NCc3ccccc3F)C2)c2nn(-c3ccc(Cl)cc3)c(C)c12 (stereo unspecified) | 771 s |
| CCc1ccc(S(=O)(=O)N2C[C@@H]3C(=O)N(C(CC)c4cccs4)C(=O)[C@@H]3C2)cc1 (stereo partly specified) | 1070 s |
| COc1ccc(-c2csc(NC(=O)CS(=O)(=O)c3ccc(C)cc3)n2)c(OC)c1 | 1010 s |
| CCc1noc(-c2cnc3nc(C)ccc3c2NCCc2ccccc2)n1 | 621 s |
| CC1CCN(S(=O)(=O)c2ccc3nn(Cc4ccccc4)c(=O)n3c2)CC1 | 893 s |
| CCCC(=O)Nc1ccc(-c2nc(-c3ccc(Cl)cc3)no2)cc1 | 1240 s |
| Cc1sc2ccn(Cc3ccc(F)cc3)c(=O)c2c1C(=O)NCCN1CCN(C)CC1 | 591 s |
| CCCCCCNC(=O)C1CC(=O)N(CCc2c[nH]c3ccc(C)cc23)C1 (stereo unspecified) | 864 s |
| Cc1ccc(-c2cn3c4c(=O)n(C)c(=O)n(C)c4nc3n2Cc2ccc(F)cc2)cc1 | 983 s |
| COc1ccc2c(c1)C=C(C(=O)N(C)c1ccccc1)C=CO2 | 1030 s |
| CCNc1nc(C)cc(N2CCN(C(=O)Nc3cc(C)cc(C)c3)CC2)n1 | 702 s |

| SMILES | RP-LC retention time |
| --- | --- |
| COc1cc(NC(=O)Cn2c(=O)n(C3CCCCC3)c3ncccc32)cc(OC)c1 | 954 s |
| Cn1cc(-c2cc3n(n2)CCC(=O)N3CC(=O)NCC2COCCO2)c2ccccc21 (stereo unspecified) | 667 s |
| Cc1ccc(CN2CCC[C@H]2c2nc(C3CCOCC3)n[nH]2)c(C)c1 | 590 s |
| CCCCn1c(=O)c2ccccc2n(Cc2nc(-c3cccc(C(F)(F)F)c3)no2)c1=O | 1240 s |
| CC(CCNC(=O)Cn1c2ccccc2c2cnn(C)c(=O)c21)N1CCCC1 (stereo unspecified) | 595 s |
| O=C(C1CCN(S(=O)(=O)c2ccc3[nH]c(=O)ccc3c2)CC1)N1CCN(c2ccccc2F)CC1 | 754 s |
| O=C(Nc1ccc(F)c(F)c1)c1c(O)c2cccnc2n(Cc2ccccc2)c1=O | 1140 s |
| O=C(CN1c2ccccc2NC2=C(C(=O)CCC2)C1c1ccco1)Nc1ccc(F)cc1 (stereo unspecified) | 1070 s |
| CCOC(=O)COc1cc(-c2ccc(F)cc2)nc2ccc(NC(=O)C3CCC3)cc12 | 810 s |
| O=C(NC1CC1)[C@@H]1C[C@H](Oc2cccnc2)CN1C(=O)c1ccsc1 | 630 s |
| Cc1c(Cl)cccc1S(=O)(=O)Nc1ccc(Cn2cncn2)cc1 | 775 s |
| CCN1CCN(CCNC(=O)C2CCN(C(=O)c3ccc(-n4ccc5ccccc54)s3)CC2)CC1 | 597 s |
| O=C(NCc1ccc2c(c1)OCO2)C1CCCN(c2nnc3ccc(Cl)cn23)C1 (stereo unspecified) | 735 s |
| CSc1ccccc1C(=O)N1CC2CC1C(=O)O2 (stereo unspecified) | 628 s |
| O=C(NC1CCCC1)C1CCCN(S(=O)(=O)Cc2ccccc2Cl)C1 (stereo unspecified) | 915 s |
| O=C(c1cnn2c(C(F)(F)F)cc(-c3ccccc3)nc12)N1CCN(c2ccccn2)CC1 | 687 s |
| COc1cccc(-n2c(N3CCCC(C(=O)NC4CCCC4)C3)nc3ccsc3c2=O)c1 (stereo unspecified) | 818 s |
| O=C(CNC(=O)c1ccccc1)Nc1nc2ccccc2[nH]1 | 598 s |
| Fc1ccc(-c2nnc(Cc3nc(-c4ccccc4Cl)no3)o2)cc1 | 995 s |
| Cc1nc(-c2cccc(F)c2)sc1C(=O)NC1CC1 | 827 s |
| COC(=O)c1sccc1NC(=O)C1CCN(Cc2nc(-c3ccc(OC)c(OC)c3)no2)CC1 | 747 s |
| COc1ccc(C)cc1NC(=O)C1CC(=O)N(c2n[nH]c3ccccc23)C1 (stereo unspecified) | 755 s |
